This is an account of results in PMC3130785, “Small Compound 6-O-Angeloylplenolin Induces Mitotic Arrest and Exhibits Therapeutic Potentials in Multiple Myeloma” (PLoS ONE, 2011).

The subject of one experiment is Mad2 bound Cdc20. Nature of the experiment: Immunoprecipitation and Western blotting. The experiment is classed as cell-based, human. As to conditions: U266 and MM.1S cells; 24 h. The protocol: (§1) Cell pellets were lysed in RIPA buffer containing 50 mM Tris pH 8.0, 150 mM NaCl, 0.1% SDS, 0.5% deoxycholate, 1% NP-40, 1 mM DTT, 1 mM NaF, 1 mM sodium vanadate, and protease inhibitors cocktail (Sigma). For immunoprecipitations, cells were lysed on ice for 15 minutes in RIPA buffer. Lysates were centrifuged. The supernatant was incubated with indicated antibodies overnight, after which protein A/G Plus beads (Santa Cruz Biotechnology) were added and incubated for 3 h. The beads were washed 4 times in RIPA buffer. Then the beads were resuspended in 1× sample buffer and boiled for 3 min. Protein extracts were quantitated and loaded on 8% to 12% sodium dodecyl sulfate polyacrylamide gel, electrophoresed, and transferred to a nitrocellulose membrane (Whatman). The membrane was incubated with primary antibody, washed, and incubated with horseradish peroxidase (HRP)–conjugated secondary antibody (Pierce). Detection was performed by using a chemiluminescent western detection kit (Cell Signaling). […]
(§2) Figure 3 6-OAP accumulates cyclin B1 which is required for mitotic arrest. […] After co-incubation with 6-OAP for 18 h, the cells were then harvested and detected by Leica DMI 400B microscope (D), or analyzed by flow cytometry for the cell cycle distribution (E). To evaluate cell growth, the cells were treated with 6-OAP for indicated time points and analyzed by trypan blue exclusion assay (F). […]

The test system of experiment [1] is ubiquitinated cyclin B1 (Ub-cyclin B1). Nature of the experiment: Immunoprecipitation and Western blotting. The experiment is classed as cell-based, human. As to conditions: U266 and MM.1S; 24 h. Here is the method: as §1, §2

Molecules are shown by their SMILES.

Take `CC=C(C)C(=O)OC1C2C(CC(C)C3C=CC(=O)C31C)OC(=O)C2C` (centres unmarked) [6-OAP, 6-O-angeloylplenolin]: in the experiment on Mad2 bound Cdc20, the Mad2-Cdc20 binding result is “enhanced the binding affinity”. Also, the “ubiquitinated cyclin B1” value in experiment [1] is “markedly decreased”.
